Test results from patent US5622934A, “Peptides with an insulin-like action” (priority 1991, dated 1997).

What was measured:
[1] = system: plasma membrane vesicles from rat fat cells; experiment: Glucose transport activity in isolated plasma membrane vesicles; assay type: biochemical; conditions: for Concentration [μM] at which 20% of the max. HI action is reached (glucose transport): 20% of the maximum human insulin action; for Glucose transport % of the max. HI action: 30 min at 25° C., then 10 sec with 50 μM D-[3-3H]glucose, human insulin (HI) = 100%
Protocol: (§1) The biological activity of the peptides of formula I according to the invention is determined with the aid of preparatively isolated rat fat cells and diaphragm fragments.
(§2) Rat fat cells were prepared as follows: Fatty tissue of the epididymis (Wistar rat, 160-180 g, no feed restriction) is digested with collagenase and the resulting isolated fat cells are washed several times by flotation.
C) Glucose transport activity
Isolated plasma membrane vesicles are obtained from rat fat cells by washing the fat cells twice in homogenization buffer (20 mM trihydroxyaminomethane (Tris)/HCl, pH 7.4, 1 mM, 4° C., EDTA, 0.25M sucrose) and then homogenizing them in 20 ml of the same buffer (glass homogenizer with Teflon pestle).
The homogenate is centrifuged (16,000×g, 15 min) and the sediment is suspended in the same buffer and centrifuged again. The sediment is suspended in 5 ml of homogenization buffer and layered onto a sucrose cushion (1.12M sucrose, 20 mM Tris/HCl, pH 7.4, 1 mM EDTA); after centrifugation (100,000×g, 70 min), the interphase containing the plasma membrane vesicles is removed with a syringe, diluted with 45 ml of buffer and centrifuged again (48,000×g, 45 min). The sediment is suspended in 10 ml of buffer, centrifuged again and resuspended in 3 ml of buffer.
Isolated plasma membrane vesicles are incubated for 30 min at 25° C. in the presence or absence of insulin or the peptides according to the invention. The vesicles are then incubated for 10 sec at 25° C. with 50 μM D-[3-^3 H]glucose and […] of the same specific radioactivity. The mixtures are rapidly filtered with suction on nitrocellulose filters. The filters are washed copiously and dried. Their radioactivity is determined by liquid scintillation measurement. The specific transport (D-[^3 H]glucose/L-[^4 C]glucose [dpm×10^-3 ]) is calculated as the difference between the [^3 H] and [^14 C] radioactivity.
(§3) The action of human insulin (HI) is given a value of 100%. The concentration data of the peptides according to the invention used are based on the concentration at which 25% or 20% of the maximum HI action is reached.

[2] = system: rat fat cells; experiment: Lipogenesis: conversion of glucose to toluene-soluble products in isolated rat fat cells; assay type: cell-based; conditions: for Concentration [μM] at which 25% of the max. HI action is reached (lipogenesis): 25% of the maximum human insulin action; for Lipogenesis % of the max. HI action: 90 min at 37° C., D-[3-3H]glucose, human insulin (HI) = 100%
Protocol: as §1, §2
This test determines the insulin-stimulatable conversion of glucose to toluene-soluble products (triglycerides, phospholipids, fatty acids), requiring the glucose transport and the triglyceride (glycerol-3-P synthesis, esterification)/phospholipid/fatty acid synthesis, including the insulin signal transmission cascade.
Rat fat cells in KRH buffer are incubated for 90 min at 37° C. with D-[3-^3 H]glucose (0.2 mM or 1 mM final concentration) in the presence or absence of insulin or peptides according to the invention. By the addition of a toluene-soluble scintillation cocktail, the cells are digested and the lipids separated from water-soluble products and the incubation medium. After phase separation, the radioactivity incorporated into lipids is determined by scintillation measurement directly without removal of the aqueous phase ([^3 H]lipid [dpm×10^-3 ]).
as §3

[3] = system: rat diaphragm fragments; experiment: Glycogenesis: glycogen synthesis in rat diaphragm fragments; assay type: cell-based; conditions: for Concentration [μM] at which 25% of the max. HI action is reached (glycogenesis): 25% of the maximum human insulin action; for Glycogenesis % of the max. HI action: 15 min at 37° C., 50 μM D-[U-14C]glucose, human insulin (HI) = 100%
Protocol: as §1
Preparation of rat diaphragm fragments: Small tissue fragments (5 mm diameter) are punched out of hemidiaphragms (Wistar rat, 60-70 g, no feed restriction) which have been washed several times.
This test determines the insulin-stimulatable glycogen synthesis in muscle cells, comprising the glucose transport via the plasma membrane and the conversion of the glucose to glycogen, including the functional insulin signal transmission cascade.
Diaphragm fragments are incubated for 15 min at 37° C. in Krebs-Ringer-Henseleit buffer (KRH buffer) with 50 μM D-[U-^14 C]glucose in the presence or absence of insulin or the peptides according to the invention. After the medium has been filtered with suction, the tissue fragments are intensively washed, frozen at -70° C. and then homogenized at 2° C. in a Polytron pulverizer. The homogenate is centrifuged (2000 g) and the supernatant is pipetted onto filter paper. To determine the glycogen formed, the filters are transferred into trichloroacetic acid (TCA) (5%), washed with ethanol and acetone and dried and their radioactivity is determined via scintillation measurement ([^14 C]glycogen [dpm×10^-3 ]).
as §3

Row | Substance | Concentration [μM] at which 20% of the max. HI action is reached (glucose transport) [1] [µM] | Glucose transport % of the max. HI action [1] [%] | Concentration [μM] at which 25% of the max. HI action is reached (lipogenesis) [2] [µM] | Lipogenesis % of the max. HI action [2] [%] | Concentration [μM] at which 25% of the max. HI action is reached (glycogenesis) [3] [µM] | Glycogenesis % of the max. HI action [3] [%]
1 | Acetyl--L--Tyr--L--Cys--L--Asn--NH--CH2 --CH2 OH [Example 11] | 260 | 40 | 200 | 36 | 240 | 45
2 | H--(3--(thien--2--yl)--L--Ala)--L--Cys--L--Asn--OH [Example 8] | 410 | 25 | 450 | 26 | 375 | 31
3 | H--D--Tyr--L--Cys--L--Asn--NH--CH2 --CH2 OH [Example 4] | 260 | 38 | 410 | 31 | – | 23
4 | H--L--Asn--L--Cys--L--Tyr--NH--CH2 --CH2 OH [Example 3] | 225 | 38 | 375 | 31 | 285 | 42
5 | H--L--Cys--L--Asn--NH--CH2 --CH2 OH [Example 5] | 600 | 25 | – | 21 | – | 16
6 | H--L--Cys--L--Tyr--NH--CH2 --CH2 OH [Example 6] | 750 | 24 | – | 17 | 480 | 32
7 | H--L--Tyr--L--Cys--L--Asn--NH--(CH2)2 --O--PO(OH)--O(CH2)2 --CN [Example 13] | 140 | 36 | 120 | 33 | 100 | 31
8 | H--L--Tyr--L--Cys--L--Asn--NH--(CH2)2 --O--PO(OH)--O--6Manα1--2Manα1--O--CH3 [Example 15] | 122 | 32 | 142 | 35 | 139 | 29
9 | H--L--Tyr--L--Cys--L--Asn--NH--CH2 --CH2 --NH2 [Example 10] | 300 | 42 | 330 | 30 | 450 | 25
10 | H--L--Tyr--L--Cys--L--Asn--NH--CH2 --CH2 --NH--gluconic acid [Example 9] | – | 15 | – | 12 | – | 11
11 | H--L--Tyr--L--Cys--L--Asn--OH [Example 12] | 880 | 20 | 750 | 26 | – | 15
12 | H--L--Tyr--L--Cys--NH--(CH2)4 --NH2 [Example 7] | – | 10 | – | 18 | – | 2
13 | H--L--Tyr--L--Cys--NH--CH2 --CH2 --NH2 [Example 2] | 350 | 40 | 500 | 32 | 650 | 28
14 | L--Tyr--L--Cys--L--Asn--NH--(CH2)2 --O--PO(OH)--O--6Manα1--2--Manα1--6Manα1--O--CH3 [Example 16] | 152 | 29 | 125 | 24 | 135 | 25
